Assay results taken from patent US9655846B2, “Methods for the preparation of liposomes comprising drugs” (priority 2009, dated 2017).

Tests used:
[1] = Stability upon dilution or storage, by reverse phase HPLC; assay type: physicochemical; settings: for time docetaxel remained soluble and formulation stable upon dilution: RP-HPLC
Protocol: Docetaxel (5 mg) was added to 31 μL of oleic acid and mixed using a VORTEX®. Ethanolamine (6 μL) was subsequently added and mixed using a VORTEX®. After mixing, the sample was dispersed in 963 μL of water for injection. Docetaxel was soluble and the formulation clear at 5 mg/mL. Docetaxel remained soluble, and the formulation was stable, upon dilution (1:10 in 2.5% glycerol) up to 24 hours as analyzed by a reverse phase high performance liquid chromatography method.
(§1) Docetaxel (5.0 mg) was added to 1 mL of 0.05 M sodium oleate and mixed using a VORTEX®. Docetaxel was soluble and the formulation clear at 5.0 mg/mL. Docetaxel remained soluble, and the formulation was stable, upon dilution (1:10 in 2.5% glycerol) up to 24 hours as analyzed by a reverse phase high performance liquid chromatography method.
as §1, with “(2” for “(5.0”, “1” for “0.05”, “caprylate” for “oleate”, “by” for “using”, “2” for “5.0”, “(1:2” for “(1:10 in”
as §1, with “(7.0” for “(5.0”, “1” for “0.05”, “linoleate” for “oleate”, “7.0” for “5.0”, “(1:10” for “(1:10 in”
Docetaxel (5 mg) was added to 1 mL of pre-made liposome containing 2 mM sodium oleate and 6% soy phosphatidyl choline, 10% trehalose, pH adjusted to 5-7 using Acetic acid, mixed using a VORTEX®, and microfluidized using a Microfluidizer with 10 passes at 15,000 psi. Five additional passes with the Microfluidizer at 15,000 psi were made to incorporate all 5 mg of the drug into 1 mL of pre-made liposome. Docetaxel was soluble and the formulation was transparent at 5 mg/mL. Docetaxel remained soluble, and the formulation was stable, upon dilution (1:10 in D5W) up to 48 hours as analyzed by a reverse phase high performance liquid chromatography method.
Hydrophobic or lipophilic compounds can be solubilized directly in sodium (or any ion) salt of fatty acid dissolved in an organic solvent. The organic solvent is subsequently removed using rotary evaporation, spray drying, or any other pharmaceutically acceptable processes. The drug-sodium salt of fatty acid mixture is subsequently dispersed in water, isotonic glycerol, or any pharmaceutically acceptable isotonic solution to achieve a desired concentration of the solubilized compound. For example, docetaxel (5 mg/mL) was dissolved in 100 mM sodium oleate in 100% ethanol. Ethanol was completely evaporated using rotary evaporation at 20° C. The docetaxel-sodium oleate was reconstituted with Water For Injection (“WFI”) or 2.5% glycerol to provide 5 mg/mL, 10 mg/mL, or 20 mg/mL concentration of docetaxel.
50 μl of Docetaxel in ethanol (100 mg/mL) was added to 1 mL of pre-made liposome containing 2 mM sodium oleate and 6% soy phosphatidyl choline, 10% trehalose and pH adjusted to 5-7 using Acetic acid, mixed using a VORTEX® and microfluidized using a Microfluidizer with 10 passes at 15,000 psi. Docetaxel was soluble and the formulation is transparent at 5 mg/mL. Docetaxel remained soluble, and the formulation was stable, upon dilution (1:10 in D5W) up to 48 hours as analyzed by a reverse phase high performance liquid chromatography method. […] The lyophilized product is reconstituted with water for injection at 5 mg, 10, or 20 mg/ml, concentration, essentially free of organic solvent.

[2] = Incorporation of docetaxel into liposome; assay type: physicochemical; settings: docetaxel added after liposome preparation vs conventional process
Protocol: As provided herein, the sequence of the addition of docetaxel results in enhanced solubility of the docetaxel. The conventional method of incorporating a hydrophobic drug into liposome is by adding the drug to lipid before liposome preparation. See, e.g., Immordino, M. L. et al., Journal of Controlled Release, 2003, 91: 417-429. By the conventional process, the incorporation of the drug is only 0.3 to 0.7 mg/mL. When docetaxel is added after liposome preparation, the incorporation of docetaxel is increased from 0.3 mg/mL to 5 mg/mL, which is more than 10 fold increase in solubility of the drug in lipid alone.
In the conventional liposome preparation, the drug to lipid molar percent ratio is 4-6% with the incorporation of drug into liposome efficiency is only 56%. See Immordino, M. L. et al., Journal of Controlled Release, 2003, 91: 417-429.

- time docetaxel remained soluble and formulation stable upon dilution ([1]; Example 6 oleic acid formulation, dilution 1:10 in 2.5% glycerol): up to 24 hours
- time docetaxel remained soluble and formulation stable upon dilution ([1]; Example 7 sodium oleate formulation, dilution 1:10 in 2.5% glycerol): up to 24 hours
- time docetaxel remained soluble and formulation stable upon dilution ([1]; Example 8 sodium caprylate formulation, dilution 1:2 2.5% glycerol): up to 24 hours
- time docetaxel remained soluble and formulation stable upon dilution ([1]; Example 9 sodium linoleate formulation, dilution 1:10 2.5% glycerol): up to 24 hours
- time docetaxel remained soluble and formulation stable upon dilution ([1]; Example 10 oleate liposome formulation, dilution 1:10 in D5W): up to 48 hours
- stability of the lyophilized formulation ([1]; Example 10 oleate liposome formulation): stable for more than a year
- time docetaxel remained soluble and formulation stable upon dilution ([1]; Example 12 nanosome-oleate formulation, dilution 1:10 in D5W): up to 48 hours
- stability of the lyophilized formulation ([1]; Example 12 nanosome-oleate formulation): stable for more than a year
- increase in solubility of the drug over lipid alone [2]: more than 10 fold
SMILES: CC(=O)O[C@@]12CO[C@@H]1C[C@H](O)[C@@]1(C)C(=O)[C@H](O)C3=C(C)[C@@H](OC(=O)[C@H](O)[C@@H](NC(=O)OC(C)(C)C)c4ccccc4)C[C@@](O)([C@@H](OC(=O)c4ccccc4)[C@H]21)C3(C)C [Docetaxel, docetaxel]
- time reconstituted docetaxel remained in solution ([1]; Example 11: docetaxel-sodium oleate reconstituted with WFI or 2.5% glycerol to 5, 10 or 20 mg/mL): remained in solution for 2 hours, 4 hours, 6 hours, 8 hours or 24 hours
